From patent publication US20240247035A1, “STAPLED ANTIMICROBIAL PEPTIDES (STAMPS) AND USES THEREOF” (Lytica Therapeutics, Inc., priority 2021, published 2024)
Converted amounts (≈) assume the structure as drawn. Where two headings read alike, the source gives them in different places. Bridge positions count the residues as written; N and C are the ends. Square brackets hold non-standard residues; d marks the D form. Peptide text beside a SMILES is read from it. S5 = C=CCCC[C@](C)(N)C(=O)O

Assays:
[1] = 48 hours cytotoxicity assay (CellTiter-Glo), liver toxicity; type: cell-based; settings: human
In short: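 HepG2 cells (EMEM, 10% FBS) attached 4 h, then exposed to serial dilutions of StAMPs (from 5 mg/mL water stock) or vehicle for 48 h at 37° C. Viability read by CellTiter-Glo luminescence after 10 min at room temperature.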

P. aeruginosa = type: cell-based, Pseudomonas aeruginosa; settings: 20-24 hours at 37° C., no visible bacterial growth
Method: (§1) Antimicrobial Activity Assay: The following microbroth dilution protocol was adapted from CLSI to determine the minimum inhibitory concentration (MIC) of StAMPs. Briefly, Mueller-Hinton broth (MHB) or cation-adjusted Mueller-Hinton broth (MHB II) was prepared and autoclaved. Then, a colony of bacterial cells was picked and grown overnight in broth at 37° C. and then diluted and allowed to grow again for 3-4 hours. Serial dilutions of peptide stocks in water (10 μl) were prepared using clear round-bottom polypropylene 96-well plates. Then 90 μl of bacteria in broth was added to give a final inoculum of 5×10^5 CFU/ml. The plates were then covered with porous tape to reduce evaporation and incubated for 20-24 hours at 37° C. The MIC was the minimum peptide concentration at which no visible bacterial growth was observed.

S. aureus = type: cell-based, Staphylococcus aureus; settings: 20-24 hours at 37° C., no visible bacterial growth
Method: as §1

E. coli = type: cell-based, Escherichia coli; settings: 20-24 hours at 37° C., no visible bacterial growth
Method: as §1

[2] = 90 minute cytotoxicity assay (LDH release), renal toxicity; type: cell-based; settings: human
In short: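 RPTEC in growth-factor-supplemented MEM were exposed overnight-plated to serial dilutions of StAMPs (from 5 mg/mL water stock) or vehicle for 90 min at 37 °C. Released LDH in medium was measured with LDH reagent for 10 min, absorbance at 490 nm.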

K. pneumoniae = type: cell-based, Klebsiella pneumoniae; settings: 20-24 hours at 37° C., no visible bacterial growth
Method: as §1

A. baumannii = type: cell-based, Acinetobacter baumannii; settings: 20-24 hours at 37° C., no visible bacterial growth
Method: as §1

SMILES	IC50 at 48 hours [1]	IC50 at 90 min [2]	further results
CC[C@H](C)[C@@H]1NC(=O)[C@@](C)(NC(=O)[C@H](CC(C)C)NC(=O)[C@H](CC(N)=O)NC(=O)[C@H](CCCCN)NC(=O)[C@H](CCCCN)NC(=O)[C@H](CCCCN)NC(=O)[C@H](CCCCN)NC(=O)CNC(=O)[C@H](CCCCN)NC(=O)[C@]2(C)CCCC=CCCC[C@](C)(NC(=O)CN)C(=O)N[C@@H](Cc3ccccc3)C(=O)N[C@@H](CO)C(=O)N[C@@H](CCCCN)C(=O)N2)CCCC=CCCC[C@@](C)(C(=O)N[C@@H](CCCCN)C(=O)NCC(N)=O)NC(=O)CNC(=O)[C@H](CO)NC1=O [compound 28] (H-G[S5]FSK[S5]KGKKKKNL[S5]ISG[S5]KG-NH2; staple 2-6, 15-19)	–	–	IC50 at 48 hours ([1]; 48 hours of incubation, CellTiter-Glo, read-out: Inhibitory Concentration at 50% Cytotoxicity (IC50) Human Liver Cells (HepG2)): > 200 µg/mL; Minimum Inhibitory Concentration (MIC) P. aeruginosa (P. aeruginosa): 6 µg/mL; Minimum Inhibitory Concentration (MIC) S. aureus (S. aureus): >64 µg/mL; Minimum Inhibitory Concentration (MIC) E. coli (E. coli): 64 µg/mL; IC50 at 90 min ([2]; 90 minutes of incubation, LDH, read-out: Inhibitory Concentration at 50% Cytotoxicity (IC50) Human Renal Proximal Tubule Epithelial Cells (RPTEC)): > 200 µg/mL; Minimum Inhibitory Concentration (MIC) K. pneumoniae (K. pneumoniae): >64 µg/mL; Minimum Inhibitory Concentration (MIC) A. baumannii (A. baumannii): 6 µg/mL
CC[C@H](C)[C@H](NC(=O)[C@H](CCCCN)NC(=O)[C@H](CCCCN)NC(=O)CNC(=O)[C@H](CCCCN)NC(=O)[C@]1(C)CCCC=CCCC[C@](C)(NC(=O)CN)C(=O)N[C@@H](Cc2ccccc2)C(=O)N[C@@H](CO)C(=O)N[C@@H](CCCCN)C(=O)N1)C(=O)N[C@@H](CCCCN)C(=O)N[C@@H](CC(N)=O)C(=O)N[C@@H](CC(C)C)C(=O)N[C@@H](CC(C)C)C(=O)N[C@@]1(C)CCCC=CCCC[C@@](C)(C(=O)NCC(N)=O)NC(=O)[C@H](CC(C)C)NC(=O)CNC(=O)[C@H](CO)NC1=O [compound 36] (H-G[S5]FSK[S5]KGKKIKNLL[S5]SGL[S5]G-NH2; staple 2-6, 16-20)	67 µg/mL (≈ 29.5 µM)	63 µg/mL (≈ 27.7 µM)	–
CC[C@H](C)[C@H](NC(=O)[C@H](CCCCN)NC(=O)[C@H](CCCCN)NC(=O)CNC(=O)[C@H](CCCCN)NC(=O)[C@]1(C)CCCC=CCCC[C@](C)(NC(=O)CN)C(=O)N[C@@H](Cc2ccccc2)C(=O)N[C@@H](CO)C(=O)N[C@@H](CCCCN)C(=O)N1)C(=O)N[C@@H](CCCCN)C(=O)N[C@@H](CC(N)=O)C(=O)N[C@@H](CC(C)C)C(=O)N[C@@H](CC(C)C)C(=O)N[C@@]1(C)CCCC=CCCC[C@@](C)(C(=O)NCC(N)=O)NC(=O)[C@H](CCCCN)NC(=O)CNC(=O)[C@H](CO)NC1=O [compound 37] (H-G[S5]FSK[S5]KGKKIKNLL[S5]SGK[S5]G-NH2; staple 2-6, 16-20)	> 200 µg/mL	> 200 µg/mL	–
CC[C@H](C)[C@H](NC(=O)[C@H](CCCCN)NC(=O)[C@H](CCCCN)NC(=O)CNC(=O)[C@H](CCCCN)NC(=O)[C@]1(C)CCCC=CCCC[C@](C)(NC(=O)CN)C(=O)N[C@@H](Cc2ccccc2)C(=O)N[C@@H](CO)C(=O)N[C@@H](CCCCN)C(=O)N1)C(=O)N[C@@H](CCCCN)C(=O)N[C@@H](CC(N)=O)C(=O)N[C@@H](CC(C)C)C(=O)N[C@@H](CC(C)C)C(=O)N[C@@]1(C)CCCC=CCCC[C@@](C)(C(=O)N[C@@H](CCCCN)C(N)=O)NC(=O)[C@H](CC(C)C)NC(=O)CNC(=O)[C@H](CO)NC1=O [compound 38] (H-G[S5]FSK[S5]KGKKIKNLL[S5]SGL[S5]K-NH2; staple 2-6, 16-20)	54 µg/mL (≈ 23 µM)	51 µg/mL (≈ 21.7 µM)	–
CC[C@H](C)[C@H](NC(=O)[C@H](CCCCN)NC(=O)[C@H](CCCCN)NC(=O)CNC(=O)[C@H](CCCCN)NC(=O)[C@]1(C)CCCC=CCCC[C@](C)(NC(=O)CN)C(=O)N[C@@H](Cc2ccccc2)C(=O)N[C@@H](CO)C(=O)N[C@@H](CCCCN)C(=O)N1)C(=O)N[C@@H](CCCCN)C(=O)N[C@@H](CC(N)=O)C(=O)N[C@@H](CC(C)C)C(=O)N[C@@H](CC(C)C)C(=O)N[C@@]1(C)CCCC=CCCC[C@@](C)(C(=O)N[C@@H](CCCCN)C(=O)NCC(=O)NCC(=O)N[C@@H](CCC(=O)O)C(N)=O)NC(=O)[C@H](CC(C)C)NC(=O)CNC(=O)[C@H](CO)NC1=O [compound 39] (H-G[S5]FSK[S5]KGKKIKNLL[S5]SGL[S5]KGGE-NH2; staple 2-6, 16-20)	> 200 µg/mL	> 200 µg/mL	–
CC[C@H](C)[C@H](NC(=O)CN)C(=O)N[C@@H](Cc1ccccc1)C(=O)N[C@@H](CO)C(=O)N[C@@H](CCCCN)C(=O)N[C@@H](CC(C)C)C(=O)N[C@@]1(C)CCCC=CCCC[C@@](C)(C(=O)N[C@@H](CCCCN)C(=O)N[C@@H](CC(N)=O)C(=O)N[C@@H](CC(C)C)C(=O)N[C@@H](CC(C)C)C(=O)N[C@H](C(=O)N[C@@H](CO)C(=O)NCC(=O)N[C@@H](CC(C)C)C(=O)N[C@@H](CCCCN)C(=O)NCC(N)=O)[C@@H](C)CC)NC(=O)[C@H](CCCCN)NC(=O)[C@H](CCCCN)NC(=O)CNC1=O [compound 40] (H-GIFSKL[S5]GKK[S5]KNLLISGLKG-NH2; staple 7-11)	17 µg/mL (≈ 7.55 µM)	11 µg/mL (≈ 4.89 µM)	–
CC[C@H](C)[C@H](NC(=O)CN)C(=O)N[C@@H](Cc1ccccc1)C(=O)N[C@@H](CO)C(=O)N[C@@H](CCCCN)C(=O)N[C@@H](CC(C)C)C(=O)N[C@@]1(C)CCCC=CCCC[C@@](C)(C(=O)N[C@@H](CCCCN)C(=O)N[C@@H](CC(N)=O)C(=O)N[C@@H](CC(C)C)C(=O)N[C@@H](CCCCN)C(=O)N[C@H](C(=O)N[C@@H](CO)C(=O)NCC(=O)N[C@@H](CC(C)C)C(=O)N[C@@H](CCCCN)C(=O)NCC(N)=O)[C@@H](C)CC)NC(=O)[C@H](CCCCN)NC(=O)[C@H](CCCCN)NC(=O)CNC1=O [compound 41] (H-GIFSKL[S5]GKK[S5]KNLKISGLKG-NH2; staple 7-11)	172 µg/mL (≈ 75.9 µM)	147 µg/mL (≈ 64.9 µM)	–
CC[C@H](C)[C@@H]1NC(=O)[C@@](C)(NC(=O)[C@H](CCCCN)NC(=O)[C@H](CCCCN)NC(=O)CNC(=O)[C@H](CCCCN)NC(=O)[C@]2(C)CCCC=CCCC[C@](C)(NC(=O)CN)C(=O)N[C@@H](Cc3ccccc3)C(=O)N[C@@H](CO)C(=O)N[C@@H](CCCCN)C(=O)N2)CCCC=CCCC[C@@](C)(C(=O)N[C@@H](CCCCN)C(=O)NCC(N)=O)NC(=O)CNC(=O)[C@H](CO)NC1=O [compound 42] (H-G[S5]FSK[S5]KGKK[S5]ISG[S5]KG-NH2; staple 2-6, 11-15)	> 200 µg/mL	> 200 µg/mL	–
